Results taken from article PMC8449414, “Rational design of ASCT2 inhibitors using an integrated experimental-computational approach” (Proceedings of the National Academy of Sciences of the …, 2021).
“Also recorded” adds a separate entry of the source.

Key:
Test in all cases: Electrophysiology: SLC1 specificity, anion current in transfected HEK293 cells
Format in all cases: cell-based
[1] = target: T1, rEAAT1 (Rattus norvegicus, UniProt P24942); details: 0 mV, 10 mM glutamate and 130 mM NaSCN internal, No current = no outward current up to highest concentration tested (§ 20-50, || 100-400, # 1500-2500 µM); for Ki: read-out: Binding affinity Ki
T1 construct: expressed in transfected cells; host or cells: HEK293 (ATCC CRL-11268), transient transfection
T1 sequence (P24942 1-543): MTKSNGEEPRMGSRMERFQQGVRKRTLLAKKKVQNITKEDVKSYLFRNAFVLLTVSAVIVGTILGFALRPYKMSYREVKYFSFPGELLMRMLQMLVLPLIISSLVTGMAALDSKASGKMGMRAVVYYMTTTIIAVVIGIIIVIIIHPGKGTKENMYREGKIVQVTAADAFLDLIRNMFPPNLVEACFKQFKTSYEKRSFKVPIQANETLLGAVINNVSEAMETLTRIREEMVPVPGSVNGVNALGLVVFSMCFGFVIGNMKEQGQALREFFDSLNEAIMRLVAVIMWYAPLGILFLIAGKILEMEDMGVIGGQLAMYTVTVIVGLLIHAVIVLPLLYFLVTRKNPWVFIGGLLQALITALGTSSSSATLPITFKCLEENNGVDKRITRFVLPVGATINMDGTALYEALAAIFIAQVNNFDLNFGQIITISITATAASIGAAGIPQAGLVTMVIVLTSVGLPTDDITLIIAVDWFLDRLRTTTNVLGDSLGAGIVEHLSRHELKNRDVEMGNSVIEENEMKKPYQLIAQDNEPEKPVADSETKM
Procedure: (§1) We also tested the specificity of Lc-BPE for ASCT2 over other SLC1 family members (ASCT1, EAAT1-3, and EAAT5).
(§2) Fig. S3. SLC-1 specificity of Lc-BPE. (A) Electrophysiological current responses to the application of 100 µM glutamate (red trace) or varying concentrations of Lc-BPE (black, blue and red traces) to rEAAT1-expressing cells HEK293 cells. (B-C) Dose response curves obtained from currents recorded a fter application of Lc-BPE extracellularly to cells transiently expressing hASCT2, rASCT2, hASCT1 (panel B) and rEAAT1, rEAAT2, rEAAT3 and hEAAT5 (panel C) respectively. For hASCT2, rASCT2 and hASCT1, intracellular pipette solution contained 10 mM alanine and 130 mM NaSCN. For rEAAT1, rEAAT2, rEAAT3 and hEAAT5, intracellular solution contained 10 mM glutamate and 130 mM NaSCN. Extracellular solution was the same for all the experiments (140 mM NaCl). The voltage was 0 mV. […]
(§3) Cell culture and transfection
(§4) Human embryonic kidney 293 (HEK293, ATCC CRL -11268) cells were cultured in DMEM media supplemented with 10% (v/v) fetal bovine serum (FBS), 2 mM glutamine, 1% penicillin streptomycin solution, 1 mM sodium pyruvate and non -essential amino acids. Cells were maintained at 370C in a fully humidified atmosphere containing 5% CO2. rASCT2, hASCT2, hASCT1, EAAT1, EAAT2, EAAT3, EAAT5 and YFP complementary DNAs were each used to transiently transfect HEK293 using POLYPLUS Jet-prime transfection reagent. Cells were analyzed using electrophysiological techniques 24-40 hours after transfection.
(§5) Electrophysiological techniques
(§6) Electrophysiological experiments were performed as described previously 1,2. Stock solutions of inhibitor was prepared in dimethyl sulfoxide (DMSO) up to 100 mM.
(§7) Dilutions to working concentrations were made using external buffer. The highest […]
(§8) cells. For rASCT2, hASCT2 and hASCT1, external buffer contained 140 mM NaCl, 2 mM MgCl2, 2 mM CaCl2, and 10 mM HEPES, pH 7.40 while internal pipette solution comprised of 130 mM NaSCN, 2 mM MgCl2, 10 mM EGTA, 10 mM HEPES and 10mM alanine, pH 7.40. For specificity experiments with EAAT1, EAAT2, EAAC1 and EAAT5, internal solution contained 10 mM glutamate instead of alanine. Compounds were applied to HEK293 cells expressing DNA of interest suspended from a current recording electrode in whole cell configuration44 through a rapid solution exchange device described previously45. Cells are immersed in external buffer bath used to dissolve the inhibitors. The open pipette resistance was between 3 and 6 MΩ. Series resistance was not compensated in these experiments due to relatively small currents. Current s traces were recorded using an Adams and List EPC7 amplifier and digitized using a Molecular Devices Digidata A/D converter.
(§9) Data analysis was performed as described previously 46. Linear and nonlinear curve fitting of the experimental data were analyzed using MicroCal Origin software. Linear plots were fitted using the general equation (y = a + bx) obtaining adjusted R 2 and Pearson’s r values. Nonlinear dose–response relationships were fitted with a Michaelis – Menten-like equation to obtain apparent Ki values in the absence of substrate. For competition studies, equation I = I1 + I2 [Inh]/(Ki + [Inh]) was used for fitting, where I1 is the alanine induced current without the inhibitor, and I2 is the maximum current in the presence of saturating inhibitor concentration, [Inh]max 1,2. At least five experiments were performed for each compound. Unless stated otherwise, the error bars in all our graphs represent mean ± SD .
(§10) ASCT2 expression and purification
(§11) Human ASCT2 (hASCT2) was produced in Pichia pastoris X-33 strain (Invitrogen) in fermentor26 and purified using DDM and CHS (Anatrace) and 1 mM L-glutamine (Merck) to maintain protein stability 27. Membranes representing ~1.5 g cells were solubilized in buffer A (25 mM Tris-HCl, pH 7.4, 300 mM NaCl, 10% (vol/vol) glycerol, 1 mM L - glutamine, 1% DDM and 0.1% CHS) for 1 h at 4 °C; ultracentrifuged (30 min, 442,907 × […]

[2] = target: T2, hEAAT5 (Homo sapiens, UniProt O00341); details: for Binding affinity Ki / Ki: HEK293 cells, 0 mV, 10 mM glutamate and 130 mM NaSCN internal, No current = no outward current up to highest concentration tested (§ 20-50, || 100-400, # 1500-2500 µM); for Ki: read-out: Binding affinity Ki
T2 construct: expressed in transfected cells; host or cells: HEK293 (ATCC CRL-11268), transient transfection
T2 sequence (O00341 whole entry): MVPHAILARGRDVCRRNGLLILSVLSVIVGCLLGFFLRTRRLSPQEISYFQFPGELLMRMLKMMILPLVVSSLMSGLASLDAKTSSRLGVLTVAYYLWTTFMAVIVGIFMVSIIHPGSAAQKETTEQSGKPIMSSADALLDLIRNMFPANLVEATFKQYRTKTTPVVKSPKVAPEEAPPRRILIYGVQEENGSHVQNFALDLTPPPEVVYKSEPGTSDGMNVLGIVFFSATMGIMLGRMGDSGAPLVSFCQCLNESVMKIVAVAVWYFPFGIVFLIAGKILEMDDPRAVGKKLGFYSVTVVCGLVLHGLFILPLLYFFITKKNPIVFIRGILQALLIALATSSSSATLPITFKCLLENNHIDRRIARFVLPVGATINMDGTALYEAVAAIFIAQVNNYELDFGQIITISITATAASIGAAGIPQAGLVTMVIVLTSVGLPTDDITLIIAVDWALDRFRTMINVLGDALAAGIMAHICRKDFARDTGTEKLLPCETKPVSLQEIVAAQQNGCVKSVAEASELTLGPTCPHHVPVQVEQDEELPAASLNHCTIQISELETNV
Procedure: as §1, §2, §3, §4, §5, §6, §7, §8, §9, §10, §11

[3] = target: T3, rEAAT2 (Rattus norvegicus, UniProt P31596); details: 0 mV, 10 mM glutamate and 130 mM NaSCN internal, No current = no outward current up to highest concentration tested (§ 20-50, || 100-400, # 1500-2500 µM); for Ki: read-out: Binding affinity Ki
T3 construct: expressed in transfected cells; host or cells: HEK293 (ATCC CRL-11268), transient transfection
T3 sequence (P31596 whole entry): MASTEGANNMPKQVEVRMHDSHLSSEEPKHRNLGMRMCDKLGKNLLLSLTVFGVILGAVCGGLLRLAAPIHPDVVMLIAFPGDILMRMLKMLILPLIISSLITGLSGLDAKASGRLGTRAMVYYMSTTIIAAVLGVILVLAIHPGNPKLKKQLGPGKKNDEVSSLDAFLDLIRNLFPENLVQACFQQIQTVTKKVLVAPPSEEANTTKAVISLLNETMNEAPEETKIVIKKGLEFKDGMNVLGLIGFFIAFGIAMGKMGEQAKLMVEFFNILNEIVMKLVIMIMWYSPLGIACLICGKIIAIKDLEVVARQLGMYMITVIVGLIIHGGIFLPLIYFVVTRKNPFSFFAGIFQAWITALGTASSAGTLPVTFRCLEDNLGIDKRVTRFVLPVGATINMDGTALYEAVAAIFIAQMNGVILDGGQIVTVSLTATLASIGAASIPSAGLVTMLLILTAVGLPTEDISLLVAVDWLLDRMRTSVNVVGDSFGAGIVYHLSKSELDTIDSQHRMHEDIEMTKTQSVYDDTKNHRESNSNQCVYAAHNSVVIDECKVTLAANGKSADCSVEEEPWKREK
Procedure: as §1, §2, §3, §4, §5, §6, §7, §8, §9, §10, §11

Binding affinity Ki [1]	Binding affinity Ki [2]	Binding affinity Ki [3]	Ki [1]	Ki [2]	Ki [3]	SMILES	Ki for hEAAT5 higher than for rASCT2 ([2]; hEAAT5 versus rASCT2)
–	–	–	1 ± 0.25 µM	1.05 ± 0.15 µM	0.97 ± 0.1 µM	O=C(O[C@@H]1CN[C@H](C(=O)O)C1)c1ccc(-c2ccc(C(F)(F)F)cc2)cc1 [ERA-5]	–
–	–	–	1 ± 0.11 µM	2.5 ± 0.93 µM	1.3 ± 0.13 µM	Cc1ccccc1-c1ccc(C(=O)O[C@@H]2CN[C@H](C(=O)O)C2)cc1 [ERA-6]	–
–	No current	No current	9.6 ± 7.5 µM	–	–	O=C(Nc1ccc(C(=O)O[C@@H]2CN[C@H](C(=O)O)C2)cc1)c1ccc(C(F)(F)F)cc1 [ERA-11]	–
–	–	–	8.18 ± 1.77 µM	6.17 ± 1.47 µM	7.72 ± 1.89 µM	O=C(O[C@@H]1CN[C@H](C(=O)O)C1)c1ccc(Oc2ccccc2)cc1 [ERA-16]	–
–	–	–	9.57 ± 1.61 µM	21.3 ± 3.15 µM	11 ± 1.25 µM	N[C@@H](COC(=O)c1ccc(NC(=O)c2ccccc2)cc1)C(=O)O [ERA-21]	–
–	No current	–	195 ± 48.4 µM	–	164 ± 47 µM	N[C@@H](COC(=O)c1ccccc1)C(=O)O [ERA-25]	–
No current	No current	No current	–	–	–	N[C@@H](COC(=O)c1cccnc1)C(=O)O [ERA-28]	–
No current	No current	No current	–	–	–	O=C(O[C@@H]1CN[C@H](C(=O)O)C1)C(c1ccccc1)c1ccccc1 [ERA-29]	–
No current	No current	No current	–	–	–	O=C(O[C@@H]1CN[C@H](C(=O)O)C1)c1ccc(OCc2ccccc2)cc1 [ERA-31]	–
No current	No current	No current	–	–	–	O=C(O[C@H]1CN[C@H](C(=O)O)C1)c1ccc(C(=O)c2ccccc2)cc1 [ERA-35]	–

SMILES	Binding affinity Ki [1]	Binding affinity Ki [2]	Binding affinity Ki [3]	Ki [1]	Ki [2]	Ki [3]	Ki for hEAAT5 higher than for rASCT2 ([2]; hEAAT5 versus rASCT2)
O=C(O[C@@H]1CN[C@H](C(=O)O)C1)c1ccccc1-c1ccccc1 [ERA-3]	No current	No current	No current	–	–	–	–
O=C(O[C@@H]1CN[C@H](C(=O)O)C1)c1ccc(-c2ccc(F)cc2)cc1 [ERA-4]	–	–	–	0.4 ± 0.07 µM	2.4 ± 0.72 µM	1.29 ± 0.31 µM	–
O=C(O[C@@H]1CN[C@H](C(=O)O)C1)c1ccc(C(O)c2ccccc2)cc1 (some centres unmarked) [ERA-9]	–	No current; also recorded: No inhibitory activity was detected	No current; also recorded: No inhibitory activity was detected	39.5 µM	–	–	–
O=C(O[C@@H]1CN[C@H](C(=O)O)C1)c1ccc(-c2ccccc2)cc1 [Lc-BPE, L-cis hydroxyproline biphenyl ester]	–	–	–	–	2.22 ± 0.46 µM	–	~3 fold
